Key:
lipoxygenase (LOX) = biological target: T1, lipoxygenase (LOX); assay: LOX inhibition, 96-well plate reader; type: biochemical; conditions: positive control; n = […]
T1 construct: gene LOX1.1; reagents from Sigma-Aldrich; soybean enzyme is usual

hyaluronidase (HYAL) = biological target: T2, hyaluronidase (HYAL); assay: HYAL inhibition, 96-well plate reader; type: biochemical; conditions: positive control; n = […]
T2 construct: gene SPAM1; reagents from Sigma-Aldrich; bovine testes preparation is usual
Description: HYAL inhibition, 96-well plate reader on hyaluronidase (HYAL)

SMILES	LOX / IC50 (μg/mL) ^a (lipoxygenase (LOX)) [µg/mL]	HYAL / IC50 (μg/mL) ^a (hyaluronidase (HYAL)) [µg/mL]
C[C@@H]1C[C@H]2[C@@H]3CCC4=CC(=O)C=C[C@]4(C)[C@@]3(F)[C@@H](O)C[C@]2(C)[C@@]1(O)C(=O)CO [DEX]	120.16 ± 4.86	14.07 ± 1.25
O=c1c(O)c(-c2ccc(O)c(O)c2)oc2cc(O)cc(O)c12 [compound 41, QU]		31.78 ± 1.52
COc1ccc2c(c1)c(CC(=O)O)c(C)n2C(=O)c1ccc(Cl)cc1 [IND]	91.89 ± 3.95	12.68 ± 1.79

From PMC9144433, “The Effect of Standardised Leaf Extracts of Gaultheria procumbens on Multiple Oxidants, Inflammation-Related Enzymes, and Pro-Oxidant and Pro-Inflammatory Functions of Human Neutrophils” (Molecules, 2022)
